Where a name gives a salt, the structure may show the parent alone.
Key:
human B1R receptor = target: T1, human B1R receptor (Homo sapiens, UniProt P46663); assay: Functional study on the bradykinin receptor 1 (B1R), FLIPR Ca2+ assay, hB1R cells; type: cell-based; settings: agonist Lys-Des-Arg9-bradykinin 0.5 nM, % inhibition compared with the maximum achievable inhibition; for inhibition at 10 µM: CHO-K1, test substance 10 μM, read-out: B1R Antagonism, human [10 μM] % Inhibition
T1 construct: host or cells: CHO K1 cells (Chinese hamster ovary), stably transfected
T1 sequence (P46663 1-353): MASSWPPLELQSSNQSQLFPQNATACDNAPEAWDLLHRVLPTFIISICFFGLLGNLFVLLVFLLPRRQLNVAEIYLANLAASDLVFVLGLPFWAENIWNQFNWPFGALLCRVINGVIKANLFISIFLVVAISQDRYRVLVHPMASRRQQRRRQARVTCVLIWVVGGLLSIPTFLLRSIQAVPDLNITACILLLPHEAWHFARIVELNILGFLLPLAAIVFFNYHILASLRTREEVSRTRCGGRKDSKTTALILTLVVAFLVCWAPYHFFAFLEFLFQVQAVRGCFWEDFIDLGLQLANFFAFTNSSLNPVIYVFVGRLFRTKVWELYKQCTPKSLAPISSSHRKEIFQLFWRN
Summary of the method: (§1)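 Readout: peak Fluo-4 Ca2+ fluorescence, FLIPR. Stable CHO K1 hB1R or rB1R cells; cpd 10 μM, 10 min preincubation, then agonist (hB1R: Lys-Des-Arg9-BK 0.5 nM; rB1R: Des-Arg9-BK 100 nM). Value = % inhibition relative to maximal achievable inhibition.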

B1R receptor of the rat = target: T2, B1R receptor of the rat (Rattus norvegicus, UniProt P97583); assay: Functional study on the bradykinin receptor 1 (B1R), FLIPR Ca2+ assay, rB1R cells; type: cell-based; settings: agonist Des-Arg9-bradykinin 100 nM, % inhibition compared with the maximum achievable inhibition; for inhibition at 10 µM: CHO-K1, test substance 10 μM, read-out: B1R Antagonism, rat [10 μM] % Inhibition
T2 construct: host or cells: CHO K1 cells (Chinese hamster ovary), stably transfected
T2 sequence (P97583 1-337): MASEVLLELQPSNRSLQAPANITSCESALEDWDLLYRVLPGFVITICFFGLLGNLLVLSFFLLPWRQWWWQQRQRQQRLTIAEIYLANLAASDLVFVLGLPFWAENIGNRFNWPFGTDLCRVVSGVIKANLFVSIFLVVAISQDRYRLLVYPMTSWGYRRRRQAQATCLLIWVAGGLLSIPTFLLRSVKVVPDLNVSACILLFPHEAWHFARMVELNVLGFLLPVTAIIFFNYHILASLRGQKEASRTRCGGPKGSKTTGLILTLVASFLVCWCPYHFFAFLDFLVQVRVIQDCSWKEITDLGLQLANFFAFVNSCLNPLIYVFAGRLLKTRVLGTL
Summary of the method: as §1

Compound | inhibition at 10 µM (human B1R receptor) | inhibition at 10 µM (B1R receptor of the rat) | B1R Antagonism, human [10 μM] % Inhibition (human B1R receptor; test substance 10 μM, hB1R CHO K1 cells) | B1R Antagonism, rat [10 μM] % Inhibition (B1R receptor of the rat; test substance 10 μM, rB1R CHO K1 cells)
COc1cc(C)c(S(=O)(=O)N2CCCCC2COCC(=O)NCCCN2CCCCC2)c(C)c1 (stereo not shown) [Example 413, 2-((1-(4-methoxy-2,6-dimethylphenylsulfonyl)piperidin-2-yl)methoxy)-N-(3-(piperidin-1-yl)propyl)acetamide] | 99.9% | 103% | – | –
CCN(Cc1ccncc1)C(=O)COCC1CCCN1S(=O)(=O)c1c(C)cc(OC)cc1C (stereo not shown) [Example 466, N-ethyl-2-((1-(4-methoxy-2,6-dimethylphenylsulfonyl)pyrrolidin-2-yl)methoxy)-N-(pyridin-4-ylmethyl)acetamide] | 92.5% | 99.7% | – | –
COc1cc(C)c(S(=O)(=O)N2CCCCC2COCC(=O)N2CCN(Cc3cccc(C#N)c3)CC2)c(C)c1 (stereo not shown) [Example 92, 3-((4-(2-((1-(4-methoxy-2,6-dimethylphenylsulfonyl)piperidin-2-yl)methoxy)acetyl)-piperazin-1-yl)methyl)benzonitrile hydrochloride] | 103% | 101% | – | –
COc1cc(C)c(S(=O)(=O)N2CCCCC2COCC(=O)N2CCC(CCN3CCCC3)CC2)c(C)c1 (stereo not shown) [Example 94, 2-((1-(4-methoxy-2,6-dimethylphenylsulfonyl)piperidin-2-yl)methoxy)-1-(4-(2-(pyrrolidin-1-yl)ethyl)piperidin-1-yl)ethanone hydrochloride] | 105% | 103% | – | –
COc1cc(C)c(S(=O)(=O)N2CCCCC2COCC(=O)N2CCN(C3CCC(C)CC3)CC2)c(C)c1 (stereo not shown) [Example 105, 2-((1-(4-methoxy-2,6-dimethylphenylsulfonyl)piperidin-2-yl)methoxy)-1-(4-(4-methylcyclohexyl)piperazin-1-yl)ethanone] | 106% | 100% | – | –
O=C(COCC1CCCN1S(=O)(=O)c1c(Cl)cc(Cl)cc1Cl)NCC1CCCN(Cc2ccccc2)C1 (stereo not shown) [Example 327, N-((1-benzylpiperidin-3-yl)methyl)-2-((1-(2,4,6-trichlorophenylsulfonyl)pyrrolidin-2-yl)methoxy)acetamide] | 104% | 101% | – | –
COc1ccc(N2CCN(C(=O)COCC3CCCCN3S(=O)(=O)c3ccc(Cl)c(Cl)c3)CC2)cc1 (stereo not shown) [Example 84, 2-[1-(3,4-dichloro-phenylsulfonyl)-piperidin-2-ylmethoxy]-1-[4-(4-methoxy-phenyl)-piperazin-1-yl]-ethanone] | 43.7% | 0% | – | –
Cc1cc(C)c(S(=O)(=O)N2Cc3ccccc3CC2COCC(=O)N2CCN(CCCN(C)C)CC2)c(C)c1 (stereo not shown) [Example 25, 1-[4-(3-dimethylamino-propyl)-piperazin-1-yl]-2-[2-(2,4,6-trimethyl-phenylsulfonyl)-1,2,3,4-tetrahydro-isoquinolin-3-ylmethoxy]-ethanone] | 91% | 80.6% | – | –
Cc1ccc(CN2CCN(C(=O)COCC3CCCCN3S(=O)(=O)c3c(Cl)cccc3Cl)CC2)cc1 (stereo not shown) [Example 408, 2-((1-(2,6-dichlorophenylsulfonyl)piperidin-2-yl)methoxy)-1-(4-(4-methylbenzyl)piperazin-1-yl)ethanone] | 102% | 99.8% | – | –
CN1CCN(Cc2ccc(CNC(=O)COCC3CCCN3S(=O)(=O)c3c(Cl)cc(Cl)cc3Cl)cc2)CC1 (stereo not shown) [Example 45, N-[4-(4-methyl-piperazin-1-ylmethyl)-benzyl]-2-[1-(2,4,6-trichloro-phenylsulfonyl)-pyrrolidin-2-ylmethoxy]-acetamide] | 69.1% | 92.4% | – | –
COc1cc(C)c(S(=O)(=O)N2CCCCC2COCC(=O)N2CCC(N3CCn4ncnc4C3)CC2)c(C)c1 (stereo not shown) [Example 145, 1-(4-(5,6-dihydro-[1,2,4]triazolo[1,5-a]pyrazin-7(8H)-yl)piperidin-1-yl)-2-((1-(4-methoxy-2,6-dimethylphenylsulfonyl)piperidin-2-yl)methoxy)ethanone] | 99.4% | 98.6% | – | –
COc1cc(C)c(S(=O)(=O)N2CCCC2COCC(=O)N2CCN(CCc3ccccc3)CC2)c(C)c1 (stereo not shown) [Example 310, 2-((1-(4-methoxy-2,6-dimethylphenylsulfonyl)pyrrolidin-2-yl)methoxy)-1-(4-phenethylpiperazin-1-yl)ethanone] | 106% | 102% | – | –
Cc1cccc(N(Cc2ccccc2)C(=O)COCC2CCCCN2S(=O)(=O)c2cc(Cl)sc2Cl)n1 (stereo not shown) [Example 515, N-benzyl-2-((1-(2,5-dichlorothiophen-3-ylsulfonyl)piperidin-2-yl)methoxy)-N-(6-methylpyridin-2-yl)acetamide] | 30.9% | 100% | – | –
COc1ccc(N2CCN(C(=O)COCC3CCCN3S(=O)(=O)c3c(C)cc(OC)cc3C)CC2)cc1 (stereo not shown) [Example 308, 2-((1-(4-methoxy-2,6-dimethylphenylsulfonyl)pyrrolidin-2-yl)methoxy)-1-(4-(4-methoxyphenyl)piperazin-1-yl)ethanone] | 105% | 101% | – | –
Cc1ccc(C)n1CCN1CCN(C(=O)COCC2CCCN2S(=O)(=O)c2c(Cl)cc(Cl)cc2Cl)CC1 (stereo not shown) [Example 332, 1-(4-(2-(2,5-dimethyl-1H-pyrrol-1-yl)ethyl)piperazin-1-yl)-2-((1-(2,4,6-trichlorophenylsulfonyl)pyrrolidin-2-yl)methoxy)ethanone] | 105% | 101% | – | –
CN(C)C1CCN(C(=O)COCCC2CCCCN2S(=O)(=O)c2cccc3ccccc23)C1 (stereo not shown) [Example 66, 1-(3-dimethylamino-pyrrolidin-1-yl)-2-[1-(naphthyl-1-sulfonyl)-piperidin-2-ylethoxy]-ethanone] | – | – | 55.38% | 38.64%
CN1CCC(N2CCN(C(=O)COCC3CCCCN3S(=O)(=O)c3ccccc3Cl)CC2)CC1 (stereo not shown) [Example 139, 2-((1-(2-chlorophenylsulfonyl)piperidin-2-yl)methoxy)-1-(4-(1-methylpiperidin-4-yl)piperazin-1-yl)ethanone dihydrochloride] | 99.9% | 98.8% | – | –
COc1cc(C)c(S(=O)(=O)N2CCCC2COCC(=O)NC2CCN(Cc3ccccc3)CC2)c(C)c1 (stereo not shown) [Example 477, N-(1-benzylpiperidin-4-yl)-2-((1-(4-methoxy-2,6-dimethylphenylsulfonyl)pyrrolidin-2-yl)methoxy)acetamide] | 94.5% | 98.8% | – | –
CN1CCC(N2CCN(C(=O)COCC3CCCCN3S(=O)(=O)c3cc(C(F)(F)F)ccc3C(F)(F)F)CC2)CC1 (stereo not shown) [Example 153, 2-((1-(2,5-bis(trifluoromethyl)phenylsulfonyl)piperidin-2-yl)methoxy)-1-(4-(1-methylpiperidin-4-yl)piperazin-1-yl)ethanone] | 81.6% | 40.6% | – | –
COc1cc(C)c(S(=O)(=O)N2CCCCC2COCC(=O)N(C)C(CN2CCOCC2)c2ccccc2)c(C)c1 (stereo not shown) [Example 368, 2-((1-(4-methoxy-2,6-dimethylphenylsulfonyl)piperidin-2-yl)methoxy)-N-methyl-N-(2-morpholino-1-phenylethyl)acetamide] | 62.1% | 101% | – | –
COc1cc(C)c(S(=O)(=O)N2CCCCC2COCC(=O)N2CCC(N3CCN(C)CC3)CC2)c(C)c1 (stereo not shown) [Example 112, 2-((1-(4-methoxy-2,6-dimethylphenylsulfonyl)piperidin-2-yl)methoxy)-1-(4-(4-methylpiperazin-1-yl)piperidin-1-yl)ethanone hydrochloride] | 102% | 102% | – | –
CCn1nccc1NC(=O)COCC1CCCCN1S(=O)(=O)c1c(C)cc(OC)cc1C (stereo not shown) [Example 257, N-(1-ethyl-1H-pyrazol-5-yl)-2-((1-(4-methoxy-2,6-dimethylphenylsulfonyl)piperidin-2-yl)methoxy)acetamide] | 34.3% | 99.9% | – | –
Cc1ccc(N2CCN(C(=O)COCC3CCCCN3S(=O)(=O)c3c(Cl)cccc3Cl)CC2)cc1C (stereo not shown) [Example 403, 2-((1-(2,6-dichlorophenylsulfonyl)piperidin-2-yl)methoxy)-1-(4-(3,4-dimethylphenyl)piperazin-1-yl)ethanone] | 101% | 100% | – | –
